In brackets after ≈: the same amount, converted by molar mass. Read-outs that look alike come from different tables or passages of the source.
Columns and labels:
[1] = test system: H. influenzae (ATCC 49247); assay: Antibacterial activity (MIC), Gram-negative type strain; assay type: cell-based, Haemophilus influenzae; conditions: Haemophilus influenzae, ATCC49247; Table 13
S. aureus (ATCC 29213) = assay: Antibacterial activity (MIC), Gram-positive type strain; assay type: cell-based, Staphylococcus aureus; conditions: Staphylococcus aureus, ATCC29213; Table 13
[2] = test system: N. gonorrheae (ATCC 49226); assay: Antibacterial activity (MIC), Gram-negative type strain; assay type: cell-based, Neisseria gonorrhoeae; conditions: Neisseria gonorrhoeae, ATCC49226; Table 13
E. faecalis (ATCC 29212) = assay: Antibacterial activity (MIC), Gram-positive type strain; assay type: cell-based, Enteroccocus faecalis; conditions: Enterococcus faecalis, ATCC29212; Table 13
E. coli (ATCC 25922) [3] = conditions: for MIC of Compound (μg/ml) in the presence of PMBN (32 μg/ml): Table 12, (b) No significant effect; for MIC of Compound (μg/ml) in the presence of PMBN (128 μg/ml): Table 1, (b) No effect
E. coli (ATCC 25922) [4] = assay: microbe, parasite or virus in culture; conditions: Escherichia coli
[5] = ATCC25922, read-out: MIC Compound alone, Table 12
[6] = ATCC25922, read-out: MIC Compound alone, Table 1

| MIC [1] [µg/mL] | MIC (S. aureus (ATCC 29213)) [µg/mL] | MIC [2] [µg/mL] | MIC (E. faecalis (ATCC 29212)) [µg/mL] | MIC of Compound (μg/ml) in the presence of PMBN (32 μg/ml) (E. coli (ATCC 25922) [3]) | MIC (E. coli (ATCC 25922) [4]; [5]) [µg/mL] | MIC of Compound (μg/ml) in the presence of PMBN (128 μg/ml) (E. coli (ATCC 25922) [3]) [µg/mL] | MIC (E. coli (ATCC 25922) [4]; [6]) [µg/mL] | Compound | MIC (E. coli (ATCC 25922) [4]; ATCC25922, read-out: MIC Compound alone) [µg/mL] |
| --- | --- | --- | --- | --- | --- | --- | --- | --- | --- |
| 0.03 (≈ 0.0585 µM) | 0.015 (≈ 0.0293 µM) | 0.015 (≈ 0.0293 µM) | ≤ 0.008 | – | – | – | – | CCNC(=O)Nc1nc2cc(-c3cnc(NS(=O)(=O)NCC)nc3)cc(-c3ccc(C)cn3)c2s1 [Compound A-39, 1-ethyl-3-[5-[2-(ethylsulfamoylamino)pyrimidin-5-yl]-7-(5-methyl-2-pyridyl)-1,3-benzothiazol-2-yl]urea] | – |
| 0.12 (≈ 0.265 µM) | 0.06 (≈ 0.133 µM) | 0.25 (≈ 0.552 µM) | 0.06 (≈ 0.133 µM) | – | – | – | – | CCNC(=O)Nc1nc2cc(-c3cnc(NS(=O)(=O)C(C)(C)C)nc3)c(F)cc2s1 [Compound A-61, N-(5-(2-(3-ethylureido)-6-fluorobenzo[d]thiazol-5-yl)pyrimidin-2-yl)-2-methylpropane-2-sulfonamide] | – |
| 0.12 (≈ 0.241 µM) | 0.25 (≈ 0.502 µM) | 0.03 (≈ 0.0603 µM) | 0.03 (≈ 0.0603 µM) | – | – | – | – | CCCS(=O)(=O)Nc1ncc(-c2cc(-c3ccccn3)c3sc(NC(=O)NCC)nc3c2)cn1 [Compound A-33, N-(5-(2-(3-ethylureido)-7-(pyridin-2-yl)benzo[d]thiazol-5-yl)pyrimidin-2-yl)propane-1-sulfonamide] | – |
| 0.015 (≈ 0.0319 µM) | 2 (≈ 4.26 µM) | 0.03 (≈ 0.0639 µM) | 0.03 (≈ 0.0639 µM) | – | – | – | – | CCNC(=O)Nc1nc2cc(-c3cnc(NS(C)(=O)=O)nc3)cc(-c3ccccn3)c2s1 [Compound A-31, N-(5-(2-(3-ethylureido)-7-(pyridin-2-yl)benzo[d]thiazol-5-yl)pyrimidin-2-yl)methanesulfonamide] | – |
| 2 (≈ 3.7 µM) | 1 (≈ 1.85 µM) | 0.25 (≈ 0.462 µM) | 0.25 (≈ 0.462 µM) | – | – | – | – | CCNC(=O)Nc1nc2cc(-c3cnc(NS(=O)(=O)N4CC(OC)C4)nc3)cc(-c3ccccn3)c2s1 [Compound A-49, N-(5-(2-(3-ethylureido)-7-(pyridin-2-yl)benzo[d]thiazol-5-yl)pyrimidin-2-yl)-3-methoxyazetidine-1-sulfonamide] | – |
| 0.03 (≈ 0.0585 µM) | 0.015 (≈ 0.0293 µM) | ≤ 0.008 | ≤ 0.008 | – | – | – | – | CCNC(=O)Nc1nc2cc(-c3cnc(NS(=O)(=O)N(C)C)nc3)cc(-c3ccc(C)cn3)c2s1 [Compound A-38, 1-[5-[2-(dimethylsulfamoylamino)pyrimidin-5-yl]-7-(5-methyl-2-pyridyl)-1,3-benzothiazol-2-yl]-3-ethyl urea] | – |
| 0.12 (≈ 0.242 µM) | 0.25 (≈ 0.504 µM) | 0.015 (≈ 0.0303 µM) | 0.015 (≈ 0.0303 µM) | – | – | – | – | CCNC(=O)Nc1nc2cc(-c3cnc(NS(=O)(=O)C4CC4)nc3)cc(-c3ccccn3)c2s1 [Compound A-34, N-(5-(2-(3-ethylureido)-7-(pyridin-2-yl)benzo[d]thiazol-5-yl)pyrimidin-2-yl)cyclopropanesulfonamide] | – |
| 0.5 (≈ 1.01 µM) | 0.06 (≈ 0.121 µM) | 0.25 (≈ 0.504 µM) | 0.06 (≈ 0.121 µM) | – | – | – | – | CCNC(=O)Nc1nc2cc(-c3cnc(N4CCCS4(=O)=O)nc3)cc(-c3ccccn3)c2s1 [Compound A-26, 1-(5-(2-(1,1-dioxidoisothiazolidin-2-yl)pyrimidin-5-yl)-7-(pyridin-2-yl)benzo[d]thiazol-2-yl)-3-ethylurea] | – |
| 0.12 (≈ 0.192 µM) | 0.06 (≈ 0.0962 µM) | 0.06 (≈ 0.0962 µM) | 0.015 (≈ 0.024 µM) | – | – | – | – | CCNC(=O)Nc1nc2cc(-c3cnc(NS(=O)(=O)N4CC[C@@H](N5CCOCC5)C4)nc3)cc(-c3ccc(C)cn3)c2s1 [Compound A-56, (R)—N-(5-(2-(3-ethylureido)-7-(5-methylpyridin-2-yl)benzo[d]thiazol-5-yl)pyrimidin-2-yl)-3-morpholinopyrrolidine-1-sulfonamide] | – |
| 4 (≈ 7.21 µM) | 0.5 (≈ 0.901 µM) | 0.25 (≈ 0.451 µM) | 0.03 (≈ 0.0541 µM) | – | – | – | – | CCNC(=O)Nc1nc2cc(-c3cnc(NS(=O)(=O)N4CC(OC)C4)nc3)cc(-c3ccc(C)cn3)c2s1 [Compound A-50, N-(5-(2-(3-ethylureido)-7-(5-methylpyridin-2-yl)benzo[d]thiazol-5-yl)pyrimidin-2-yl)-3-methoxyazetidine-1-sulfonamide] | – |
| 0.03 (≈ 0.0541 µM) | 0.12 (≈ 0.216 µM) | 0.015 (≈ 0.027 µM) | 0.015 (≈ 0.027 µM) | – | – | – | – | CCNC(=O)Nc1nc2cc(-c3cnc(NS(=O)(=O)N4CC[C@@H](O)C4)nc3)cc(-c3ccc(C)cn3)c2s1 [Compound A-59, (R)—N-(5-(2-(3-ethylureido)-7-(5-methylpyridin-2-yl)benzo[d]thiazol-5-yl)pyrimidin-2-yl)-3-hydroxypyrrolidine-1-sulfonamide] | – |
| 1 (≈ 1.72 µM) | 2 (≈ 3.44 µM) | 0.03 (≈ 0.0517 µM) | 0.25 (≈ 0.431 µM) | – | – | – | – | CCNC(=O)Nc1nc2cc(-c3cnc(NS(=O)(=O)C4CCN(C(C)=O)C4)nc3)cc(-c3ccc(C)cn3)c2s1 (centres unmarked) [Compound A-58, 1-acetyl-N-(5-(2-(3-ethylureido)-7-(5-methylpyridin-2-yl)benzo[d]thiazol-5-yl)pyrimidin-2-yl)pyrrolidine-3-sulfonamide] | – |
| 0.03 (≈ 0.0573 µM) | ≤ 0.008 | ≤ 0.008 | ≤ 0.008 | – | – | – | – | CCNC(=O)Nc1nc2cc(-c3cnc(NS(=O)(=O)C4CCCC4)nc3)cc(-c3ccccn3)c2s1 [Compound A-35, N-(5-(2-(3-ethylureido)-7-(pyridin-2-yl)benzo[d]thiazol-5-yl)pyrimidin-2-yl)cyclopentanesulfonamide] | – |
| 0.03 (≈ 0.0541 µM) | 0.03 (≈ 0.0541 µM) | ≤ 0.008 | ≤ 0.008 | – | – | – | – | CCNC(=O)Nc1nc2cc(-c3cnc(NS(=O)(=O)N4CCOCC4)nc3)cc(-c3ccc(C)cn3)c2s1 [Compound A-44, N-(5-(2-(3-ethylureido)-7-(5-methylpyridin-2-yl)benzo[d]thiazol-5-yl)pyrimidin-2-yl)morpholine-4-sulfonamide] | – |
| 0.015 (≈ 0.0275 µM) | 0.015 (≈ 0.0275 µM) | ≤ 0.008 | 0.008 (≈ 0.0147 µM) | – | – | – | – | CCNC(=O)Nc1nc2cc(-c3cnc(NS(=O)(=O)c4ccccc4)nc3)cc(-c3ccc(C)cn3)c2s1 [Compound A-51, N-(5-(2-(3-ethylureido)-7-(5-methylpyridin-2-yl)benzo[d]thiazol-5-yl)pyrimidin-2-yl)benzenesulfonamide] | – |
| 0.5 (≈ 0.981 µM) | 0.06 (≈ 0.118 µM) | 0.12 (≈ 0.235 µM) | 0.03 (≈ 0.0589 µM) | – | – | – | – | CCNC(=O)Nc1nc2cc(-c3cnc(N4CCCCS4(=O)=O)nc3)cc(-c3ccccn3)c2s1 [Compound A-24, 1-(5-(2-(1,1-dioxido-1,2-thiazinan-2-yl)pyrimidin-5-yl)-7-(pyridin-2-yl)benzo[d]thiazol-2-yl)-3-ethyl-urea] | – |
| 2 (≈ 3.32 µM) | 1 (≈ 1.66 µM) | 0.06 (≈ 0.0995 µM) | 0.25 (≈ 0.415 µM) | – | – | – | – | CCNC(=O)Nc1nc2cc(-c3cnc(NS(=O)(=O)C[C@@H](N)Cc4ccccc4)nc3)cc(-c3ccc(C)cn3)c2s1 [Compound A-46, (S)-2-amino-N-(5-(2-(3-ethylureido)-7-(5-methylpyridin-2-yl)benzo[d]thiazol-5-yl)pyrimidin-2-yl)-3-phenylpropane-1-sulfonamide] | – |
| 0.03 (≈ 0.0556 µM) | 0.12 (≈ 0.222 µM) | ≤ 0.008 | ≤ 0.008 | – | – | – | – | CCNC(=O)Nc1nc2cc(-c3cnc(NS(=O)(=O)C4(CO)CC4)nc3)cc(-c3ccc(C)cn3)c2s1 [Compound A-55, N-(5-(2-(3-ethylureido)-7-(5-methylpyridin-2-yl)benzo[d]thiazol-5-yl)pyrimidin-2-yl)-1-(hydroxymethyl)cyclopropane-1-sulfonamide] | – |
| – | – | – | – | 1 µg/mL | 4 (≈ 12.4 µM) | – | – | O=C(N[C@H](CO)[C@H](O)c1ccc([N+](=O)[O-])cc1)C(Cl)Cl [Chloramphenicol, reference compound] | – |
| – | – | – | – | – | – | 0.5 | > 64 | CCNC(=O)Nc1nc2cc(-c3cnc(N4CCC(C)(C(=O)O)CC4)nc3)cc(-c3ccccn3)c2s1 [Example 1 (WO2012/045124), 1-[5-[2-(ethylcarbamoylamino)-7-(2-pyridyl)-1,3-benzothiazol-5-yl]pyrimidin-2-yl]-4-methyl-piperidine-4-carboxylic acid] | – |
| – | – | – | – | – | – | 0.12 | > 64 | CCNC(=O)Nc1nc2cc(-c3cnc(NC(=O)N4CC[C@@H](O)C4)nc3)cc(-c3ccc(C)cn3)c2s1 [Compound A-1, (3R)—N-[5-[2-(Ethylcarbamoylamino)-7-(5-methyl-2-pyridyl)-1,3-benzothiazol-5-yl]pyrimidin-2-yl]-3-hydroxy-pyrrolidine-1-carboxamide] | – |
| – | – | – | – | 4^(b) μg/ml | 8 (≈ 16.5 µM) | – | – | NC[C@H]1O[C@H](O[C@H]2[C@H](O)[C@@H](O[C@H]3O[C@H](CO)[C@@H](O)[C@H](N)[C@H]3O)[C@H](N)C[C@@H]2N)[C@H](O)[C@@H](O)[C@@H]1O [Kanamycin, reference compound] | – |
| – | – | – | – | – | – | 0.5 | > 64 | CCNC(=O)Nc1nc2cc(-c3cnc(C(C)(C)O)nc3)cc(-c3cc(CN4CCOCC4)ccn3)c2s1 [Example 28 (WO2013/138860), 1-ethyl-3-[5-[2-(1-hydroxy-1-methyl-ethyl)pyrimidin-5-yl]-7-[4-(morpholinomethyl)-2-pyridyl]-1,3-benzothiazol-2-yl]urea] | – |
| – | – | – | – | – | – | 32 | > 64 | CCNC(=O)Nc1nc2cc(-c3cnc(NS(=O)(=O)C(C)(C)C)nc3)cc(N3CCN(CCN4CCCC4)CC3)c2s1 [Compound A-20, 1-[5-[2-(tert-butylsulfonylamino)pyrimidin-5-yl]-7-[4-(2-pyrrolidin-1-ylethyl)piperazin-1-yl]-1,3-benzothiazol-2-yl]-3-ethyl-urea] | – |

| Compound | MIC [1] [µg/mL] | MIC (S. aureus (ATCC 29213)) [µg/mL] | MIC [2] [µg/mL] | MIC (E. faecalis (ATCC 29212)) [µg/mL] | MIC of Compound (μg/ml) in the presence of PMBN (32 μg/ml) (E. coli (ATCC 25922) [3]) | MIC (E. coli (ATCC 25922) [4]; [5]) [µg/mL] | MIC of Compound (μg/ml) in the presence of PMBN (128 μg/ml) (E. coli (ATCC 25922) [3]) [µg/mL] | MIC (E. coli (ATCC 25922) [4]; [6]) [µg/mL] | MIC (E. coli (ATCC 25922) [4]; ATCC25922, read-out: MIC Compound alone) [µg/mL] |
| --- | --- | --- | --- | --- | --- | --- | --- | --- | --- |
| CCN1CCN(C(=O)N[C@@H](C(=O)N[C@@H]2C(=O)N3[C@@H]2SC(C)(C)[C@@H]3C(=O)O)c2ccccc2)C(=O)C1=O [Piperacillin, reference compound] | – | – | – | – | 0.25 µg/mL | – | – | – | 2 (≈ 3.86 µM) |

Reference: patent US20170007615A1, “Antibacterial Compounds” (priority 2014, published 2017)
